Laboratory results reported in ChEMBL document CHEMBL1124217, “2,4-Diamino-5-benzylpyrimidines and analogues as antibacterial agents. 9. Lipophilic trimethoprim analogues as antigonococcal agents” (J Med Chem, 1988).
Values after ≈ are worked out from the molar mass of the structure shown.

What was measured:
Neisseria gonorrhoeae = assay: Inhibition of growth of Neisseria gonorrhoeae; assay type: functional
Escherichia coli [1] = assay: Inhibition of growth of Escherichia coli (CN314) measured as MIC compound/MIC Trimethoprim; assay type: functional
Klebsiella aerogenes [2] = assay: Inhibition of growth of Enterobacter aerogenes (2200/186) measured as MIC(compound/MIC Trimethoprim; assay type: functional
Klebsiella pneumoniae [3] = assay: Inhibition of growth of Klebsiella pneumoniae (CN3632) measured as MIC compound/MIC Trimethoprim; assay type: functional
Proteus vulgaris [4] = assay: Inhibition of growth of Proteus vulgaris (CN329) measured as MIC compound/MIC Trimethoprim; assay type: functional
Shigella flexneri [5] = assay: Inhibition of growth of Shigella flexneri (CN6007) measured as MIC compound/MIC Trimethoprim; assay type: functional
Staphylococcus aureus [6] = assay: Inhibition of growth of Staphylococcus aureus (CN491) measured as MIC compound/MIC Trimethoprim; assay type: functional
Vibrio cholerae [7] = assay: Inhibition of growth of Vibrio cholera (ATCC 14035) measured as MIC compound/MIC Trimethoprim; assay type: functional
Dihydrofolate reductase = target: T1, Dihydrofolate reductase (Rattus norvegicus, UniProt Q920D2); assay: Inhibition of Rat liver Dihydrofolate reductase(DHFR); details: read-out: I50
T1 sequence (Q920D2 whole entry): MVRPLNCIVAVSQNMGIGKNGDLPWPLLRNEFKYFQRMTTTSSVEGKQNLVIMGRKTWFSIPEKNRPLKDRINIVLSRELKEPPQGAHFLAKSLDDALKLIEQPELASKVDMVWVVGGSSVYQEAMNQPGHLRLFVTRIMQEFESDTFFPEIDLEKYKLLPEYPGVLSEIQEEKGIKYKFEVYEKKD

Escherichia coli [8] = assay: Inhibition of growth of Escherichia coli (CN314) was measured
Klebsiella pneumoniae [9] = assay: Inhibition of growth of Klebsiella pneumoniae (CN3632) was measured
[10] = tested on: Mycolicibacterium smegmatis; assay: Inhibition of growth of Mycobacterium smegmatis (S3254) was measured
Proteus vulgaris [11] = assay: Inhibition of growth of Proteus vulgaris (CN329) was measured
Serratia marcescens = assay: Inhibition of growth of Serratia marcescens (CN2398) was measured
Shigella flexneri [12] = assay: Inhibition of growth of Shigella flexneri (CN6007) was measured
Staphylococcus aureus [13] = assay: Inhibition of growth of Staphylococcus aureus (CN491) was measured
Klebsiella aerogenes [14] = assay: microbe, parasite or virus in culture
Description: Inhibition of growth of Enterobacter aerogenes (2200/186) was measured

Vibrio cholerae [15] = assay: microbe, parasite or virus in culture; details: ATCC 14035
Description: Inhibition of growth of Vibrio cholera (ATCC 14035) was measured

SMILES	MIC (Neisseria gonorrhoeae) [µM]	MIC ratio (Escherichia coli [1])	MIC ratio (Klebsiella aerogenes [2])	MIC ratio (Klebsiella pneumoniae [3])	MIC ratio (Proteus vulgaris [4])	MIC ratio (Shigella flexneri [5])	MIC ratio (Staphylococcus aureus [6])	further results
C=CCc1cc(Cc2cnc(N)nc2N)cc(OC)c1OC	110 (≈ 33 µg/mL)							
CCCc1cc(Cc2cnc(N)nc2N)cc(CC)c1O	9 (≈ 2.58 µg/mL)	10	10	3	3	3	0.3	MIC (Vibrio cholerae [7]): 1 µg/mL (≈ 3.49 µM)
Cc1cc(Cc2cnc(N)nc2N)cc(C)c1O		10	1	3	3		10	
CCc1cc(Cc2cnc(N)nc2N)cc(CC)c1OC		3	10	10	30	3	0.3	
CC(C)(C)c1cc(Cc2cnc(N)nc2N)cc(C(C)(C)C)c1O	35 (≈ 11.5 µg/mL)	> 1000	> 1000	> 1000	> 1000	> 1000	30	
CCCc1cc(Cc2cnc(N)nc2N)cc(CCC)c1O		10	30	30	30	10	0.3	MIC (Vibrio cholerae [7]): 1 µg/mL (≈ 3.33 µM)
C/C=C/c1cc(Cc2cnc(N)nc2N)cc(OC)c1OC	110 (≈ 33 µg/mL)							
CCCc1cc(Cc2cnc(N)nc2N)cc(CC)c1OC	17.5 (≈ 5.26 µg/mL)	30	100	30	30	30	0.3	IC50 (Dihydrofolate reductase): 30 µM; MIC (Vibrio cholerae [7]): 10 µg/mL (≈ 33.3 µM)
COc1c(C(C)C)cc(Cc2cnc(N)nc2N)cc1C(C)C		3000	> 1000	> 1000	> 1000		30	
C=CCc1cc(Cc2cnc(N)nc2N)cc(CCC)c1O								IC50 (Dihydrofolate reductase): 3.63 µM
CCc1cc(Cc2cnc(N)nc2N)cc(C)c1OC	140 (≈ 38.1 µg/mL)	30	30	30	3	30	3	
CCCc1cc(Cc2cnc(N)nc2N)cc(OC)c1OC	54 (≈ 16.3 µg/mL)							
COc1c(C)cc(Cc2cnc(N)nc2N)cc1C(C)(C)C		100	300	> 100	> 30	300	10	MIC (Vibrio cholerae [7]): 10 µg/mL (≈ 33.3 µM)
COc1c(C(C)(C)C)cc(Cc2cnc(N)nc2N)cc1C(C)(C)C	13 (≈ 4.45 µg/mL)	10000	> 1000	> 1000	> 1000		30	
Cc1cc(Cc2cnc(N)nc2N)cc(C(C)(C)C)c1O		100	100	100	100	30	3	
CCc1cc(Cc2cnc(N)nc2N)cc(C)c1O		3	3	3		3	1	
COc1c(C)cc(Cc2cnc(N)nc2N)cc1C	200 (≈ 51.7 µg/mL)	1000	1000	300	300		100	
COc1cc(Cc2cnc(N)nc2N)cc(OC)c1OC [TRIMETHOPRIM]	240 (≈ 69.7 µg/mL)							MIC (Escherichia coli [8]): 1 µg/mL (≈ 3.44 µM); MIC (Klebsiella pneumoniae [9]): 1 µg/mL (≈ 3.44 µM); MIC [10]: 1 µg/mL (≈ 3.44 µM); MIC (Proteus vulgaris [11]): 1 µg/mL (≈ 3.44 µM); MIC (Serratia marcescens): 1 µg/mL (≈ 3.44 µM); MIC (Shigella flexneri [12]): 1 µg/mL (≈ 3.44 µM); MIC (Salmonella): 1 µg/mL (≈ 3.44 µM); MIC (Staphylococcus aureus [13]): 1 µg/mL (≈ 3.44 µM); MIC (Klebsiella aerogenes [14]): 1 µg/mL (≈ 3.44 µM); MIC (Vibrio cholerae [15]): 1 µg/mL (≈ 3.44 µM)
CCc1cc(Cc2cnc(N)nc2N)cc(CC)c1O		3	10	10	10	10	3	MIC (Vibrio cholerae [7]): 1 µg/mL (≈ 3.67 µM)
CCOc1cc(Cc2cnc(N)nc2N)cc(OC)c1OC	180 (≈ 54.8 µg/mL)							
CCCc1cc(Cc2cnc(N)nc2N)cc(CCC)c1OC		30	100	30	30	100	1	MIC (Vibrio cholerae [7]): 10 µg/mL (≈ 31.8 µM)
